As usually defined, the IC50 is the midpoint of a concentration-inhibition curve. A higher IC50 goes with weaker potency in that assay. The melting point is the temperature of the solid-liquid transition.

The source of these data is patent publication US8722663B2, “Di-substituted pyridine derivatives as anticancers” (Otsuka Pharmaceutical Co., Ltd., priority 2010, dated 2014).

Series [1] relates to human prostate (adenocarcinoma) cell line (PC-3). Briefly: Growth inhibition of PC-3 cells, WST-8 assay. It is filed as cell-based. The note with it: 120 h, 5 days with test compound. How it is done:
(§1) The growth inhibition on a bicalutamide resistant human prostate cancer cell line established from LNCaP.FGC (LNCaP-Bic) (Hobisch A, et al. Prostate. 2006; 66(4):413-20.) was determined by a WST-8 assay according to the method of Singh A K, et al. (Cancer Lett. 1996 Oct. 1; 107(1): 109-15.). In this method, LNCaP-Bic cells were seeded in RPMI 1640 medium containing 10% fetal bovine serum in a 96-well microplate and incubated at 37° C. for 24 hours in the presence of 5% carbon dioxide. Then, the test compound was added and the cells were incubated for another 5 days. After incubation, a 15-μL volume of WST-8 (2-(2-methoxy-4-nitrophenyl)-3-(4-nitrophenyl)-5-(2,4-[…])-2H-tetrazolium, monosodium salt) was added. After the incubation for the time, the color reaction was stopped by adding 15 μL of 1% SDS (sodium dodecyl sulfate) solution and the optical density was determined at the measurement wavelength of 450 nm and the reference wavelength of 630 nm, and the difference was calculated. The cell growth activity in each well was defined as the value determined by subtracting the OD in the control well not containing cells (the difference in absorbance between 450 nm and 630 nm) from that in the test well.
(§2) The 50% inhibitory concentration (IC50 (nM)) of the test compound was determined by comparing the cell growth activity in the well containing the test compound with that of the control not containing the test compound.
The growth inhibition on a human prostate (adenocarcinoma) cell line (PC-3) (van Bokhoven A, et al. Prostate. 2003; 57(3):205-25.) was also determined by the above method.

In series [2] the test system is human prostate (adenocarcinoma) cell line (VcaP). Briefly: Growth inhibition of VcaP cells, WST-8 assay. It is filed as cell-based. To be noted: 120 h, 5 days with test compound. How it is done:
as §1, §2
The growth inhibition on a human prostate (adenocarcinoma) cell line (VcaP) (Korenchuk S, et al. In Vivo. 2001; 15(2):163-8.) was also determined by the above method.
For orientation: Tetrazolium dyes change colour on reduction, which living cells bring about.

For series [3], the system named is human prostate (carcinoma) cell line (LNCaP.FGC). The series is described as follows: Growth inhibition of LNCaP.FGC cells, WST-8 assay. To be noted: 120 h, 5 days with test compound. The series is classed as cell-based. How it is done: as §1, §2
The growth inhibition on a human prostate (carcinoma) cell line (LNCaP.FGC) (van Bokhoven A, et al. Prostate. 2003; 57(3):205-25.) was also determined by the above method.

Series [4] concerns human prostate (carcinoma) cell line (DU 145). Briefly: Growth inhibition of DU 145 cells, WST-8 assay. The series is classed as cell-based. To be noted: 120 h, 5 days with test compound. How it is done: as §1, §2
The growth inhibition on a human prostate (carcinoma) cell line (DU 145) (van Bokhoven A, et al. Prostate. 2003; 57(3):205-25.) was also determined by the above method.

The test system of series [5] is bicalutamide resistant human prostate cancer cell line established from LNCaP.FGC (LNCaP-Bic). Briefly: Growth inhibition of LNCaP-Bic cells, WST-8 assay. The series is classed as cell-based. The note with it: 120 h, 5 days with test compound. As to the method:
as §1, §2

Structures can show the parent of a compound that is named as a salt. Where only a bound is given, the exact number is not on record here.

`COc1ccc(COc2ccc(Oc3c(C)cc(/C=C/C(=O)N4CCN(Cc5ccc(/C=C/COc6ccc(C)cc6)cc5)CC4)cc3C)nc2)cc1` [Example 1, (2E)-3-[4-({5-[(4-methoxybenzyl)oxy]pyridin-2-yl}oxy)-3,5-dimethylphenyl]-1-(4-{4-[(1E)-3-(4-methylphenoxy)prop-1-en-1-yl]benzyl}piperazin-1-yl)prop-2-en-1-one] had a melting point of 130 to 132 °C. Besides, the IC50 in series [1] was less than 10 nM. Further, the IC50 in series [2] was less than 10 nM. This molecule also returned an IC50 in series [3] of less than 10 nM. Besides, the concentration for half-maximal inhibition (IC50) in series [4] is less than 10 nM. The molecule further returned a 50% inhibitory concentration (IC50) in series [5] of less than 10 nM.

As to `Cc1ccc(COc2ccc(Oc3c(C)cc(/C=C/C(=O)N4CCN(Cc5ccc(CCOc6ccc(F)cc6)cc5)[C@@H](C)C4)cc3Cl)nc2)cc1` [Example 392, (E)-3-[3-chloro-5-methyl-4-({5-[(4-methylbenzyl)oxy]pyridin-2-yl}oxy)phenyl]-1-[(3S)-4-{4-[2-(4-fluorophenoxy)ethyl]benzyl}-3-methylpiperazin-1-yl]prop-2-en-1-one], the IC50 in series [1], in series [2], in series [3], in series [4] and in series [5] was less than 10 nM in each case.

`Cc1ccc(COc2ccc(Oc3c(C)cc(/C=C/C(=O)N4CCN(Cc5ccc(CCOc6ccc(Cl)cc6)cc5)CC4)cc3Cl)nc2)cc1F.Cl` [Example 427, (E)-3-[3-Chloro-4-({5-[(3-fluoro-4-methylbenzyl)oxy]pyridin-2-yl}oxy)-5-methylphenyl]-1-(4-{4-[2-(4-chlorophenoxy)ethyl]benzyl}piperazin-1-yl)prop-2-en-1-one hydrochloride] came in with a melting point of 224.7 to 224.8 °C. In series [1], this molecule registered a half-inhibitory concentration (IC50) of less than 10 nM. Besides, the concentration for half-maximal inhibition (IC50) in series [2] is less than 10 nM. The molecule further came in with an IC50 in series [3] of less than 10 nM. This molecule yielded an IC50 in series [4] of less than 10 nM. In addition, the concentration for half-maximal inhibition (IC50) in series [5] is less than 10 nM.

For the molecule `Cc1cc(/C=C/C(=O)N2CCN(Cc3ccc(CCOc4ccc(F)cc4)cc3)CC2)cc(Cl)c1Oc1ccc(OCc2ccccc2F)cn1.Cl` [Example 447, (E)-3-[3-Chloro-4-({5-[(2-fluorobenzyl)oxy]pyridin-2-yl}oxy)-5-methylphenyl]-1-(4-{4-[2-(4-fluorophenoxy)ethyl]benzyl}piperazin-1-yl)prop-2-en-1-one hydrochloride], the melting point was in the range of 224 to 224.5 °C. The same molecule registered an IC50 in series [1] of less than 10 nM. This molecule displayed an IC50 in series [2] of less than 10 nM. Further, the IC50 in series [3] is less than 10 nM. The concentration for half-maximal inhibition (IC50) in series [4] is less than 10 nM. In series [5], the IC50 was less than 10 nM.

On to `Cc1ccc(OCCc2ccc(CN3CCN(C(=O)/C=C/c4cc(C)c(Oc5ccc(OCc6ccccc6F)cn5)c(Cl)c4)CC3)cc2)cc1` [Example 451, (E)-3-[3-Chloro-4-({5-[(2-fluorobenzyl)oxy]pyridin-2-yl}oxy)-5-methylphenyl]-1-(4-{4-[2-(4-methylphenoxy)ethyl]benzyl}piperazin-1-yl)prop-2-en-1-one hydrochloride], for which the half-inhibitory concentration (IC50) in series [1], in series [2], in series [3], in series [4] and in series [5] was less than 10 nM each time.

In the case of `Cc1ccc(OCCc2ccc(CN3CCN(C(=O)/C=C/c4cc(C)c(Oc5ccc(OCc6ccccc6Cl)cn5)c(Cl)c4)CC3)cc2)cc1` [Example 452, (E)-3-[3-Chloro-4-({5-[(2-chlorobenzyl)oxy]pyridin-2-yl}oxy)-5-methylphenyl]-1-(4-{4-[2-(4-methylphenoxy)ethyl]benzyl}piperazin-1-yl)prop-2-en-1-one hydrochloride], the IC50 in series [1], in series [2], in series [3], in series [4] and in series [5] was less than 10 nM each time.

In the case of `Cc1cc(/C=C/C(=O)N2CCN(Cc3ccc(CCOc4ccc(Cl)cc4)cc3)CC2)cc(Cl)c1Oc1ccc(OCc2ccccc2Cl)cn1` [Example 466, (E)-3-[3-Chloro-4-({5-[(2-chlorobenzyl)oxy]pyridin-2-yl}oxy)-5-methylphenyl]-1-(4-{4-[2-(4-chlorophenoxy)ethyl]benzyl}piperazin-1-yl)prop-2-en-1-one hydrochloride], the IC50 in series [1], in series [2], in series [3], in series [4] and in series [5] was less than 10 nM each time.

`Cc1cc(/C=C/C(=O)N2CCN(Cc3ccc(CCOc4ccc(C(C)C)cc4)cc3)CC2)ccc1Oc1ccc(OCc2ccccc2Cl)cn1.Cl` [Example 507, (E)-3-[4-({5-[(2-Chlorobenzyl)oxy]pyridin-2-yl}oxy)-3-methylphenyl]-1-[4-(4-{2-[4-(propan-2-yl)phenoxy]ethyl}benzyl)piperazin-1-yl]prop-2-en-1-one hydrochloride]: the melting point lay in the range of 178.2 to 178.9 °C. The IC50 in series [1] is less than 10 nM. This molecule also had an IC50 in series [2] of less than 10 nM. Also, the IC50 in series [3] is less than 10 nM. In series [4], this molecule showed an IC50 of less than 10 nM. Also, the half-inhibitory concentration (IC50) in series [5] is less than 10 nM.

Regarding `CC(C)c1ccc(OCCc2ccc(CN3CCN(C(=O)/C=C/c4ccc(Oc5ccc(OCc6ccc(C#N)cc6)cn5)c(F)c4)CC3)cc2)cc1` [Example 593, 4-({[6-(2-Fluoro-4-{(E)-3-oxo-3-[4-(4-{2-[4-(propan-2-yl)phenoxy]ethyl}benzyl)piperazin-1-yl]prop-1-en-1-yl}phenoxy)pyridin-3-yl]oxy}methyl)benzonitrile hydrochloride], the IC50 in series [1], in series [2], in series [3], in series [4] and in series [5] was less than 10 nM throughout.

With `CCOc1cccc(OCCc2ccc(CN3CCN(C(=O)/C=C/c4cc(C)c(Oc5ccc(OCc6cncs6)cn5)c(C)c4)CC3)cc2)c1.Cl` [Example 594, (E)-3-(3,5-Dimethyl-4-{[5-(1,3-thiazol-5-ylmethoxy)pyridin-2-yl]oxy}phenyl)-1-(4-{4-[2-(3-ethoxyphenoxy)ethyl]benzyl}piperazin-1-yl)prop-2-en-1-one hydrochloride], the melting point fell in the range of 190.4 to 191.8 °C. This molecule also showed an IC50 in series [1] of less than 10 nM. In series [2], the half-inhibitory concentration (IC50) was less than 10 nM. In addition, the IC50 in series [3] is less than 10 nM. The IC50 in series [4] is less than 10 nM. The IC50 in series [5] is less than 10 nM.

`Cc1cc(/C=C/C(=O)N2CCN(Cc3ccc(CCOc4ccc(C(C)C)cc4)cc3)CC2)cc(C)c1Oc1ccc(OCc2cncs2)cn1.Cl` [Example 595, (E)-3-(3,5-Dimethyl-4-{[5-(1,3-thiazol-5-ylmethoxy)pyridin-2-yl]oxy}phenyl)-1-[4-(4-{2-[4-(propan-2-yl)phenoxy]ethyl}benzyl)piperazin-1-yl]prop-2-en-1-one hydrochloride]: the melting point was in the range of 199.2 to 200.9 °C. In series [1], this molecule displayed a 50% inhibitory concentration (IC50) of less than 10 nM. The molecule also yielded an IC50 in series [2] of less than 10 nM. The molecule also registered a 50% inhibitory concentration (IC50) in series [3] of less than 10 nM. In addition, the IC50 in series [4] was less than 10 nM. The same molecule showed a 50% inhibitory concentration (IC50) in series [5] of less than 10 nM.

For `Cc1ccc(OCCc2ccc(CN3CCN(C(=O)/C=C/c4cc(C)c(Oc5ccc(OCc6cscn6)cn5)c(C)c4)CC3)cc2)cc1` [Example 601, (E)-3-(3,5-Dimethyl-4-{[5-(1,3-thiazol-4-ylmethoxy)pyridin-2-yl]oxy}phenyl)-1-(4-{4-[2-(4-methylphenoxy)ethyl]benzyl}piperazin-1-yl)prop-2-en-1-one hydrochloride], the 50% inhibitory concentration (IC50) in series [1], in series [2], in series [3], in series [4] and in series [5] was less than 10 nM in each case.

In the case of `COc1ccc(COc2ccc(Oc3c(C)cc(/C=C/C(=O)N4CCN(Cc5ccc(CCOc6ccc(C)cc6)cc5C)CC4)cc3C)nc2)cc1` [Example 611, (E)-3-[4-({5-[(4-Methoxybenzyl)oxy]pyridin-2-yl}oxy)-3,5-dimethylphenyl]-1-(4-{2-methyl-4-[2-(4-methylphenoxy)ethyl]benzyl}piperazin-1-yl)prop-2-en-1-one hydrochloride], the IC50 in series [1], in series [2], in series [3], in series [4] and in series [5] was less than 10 nM each time.
